Assay results: ChEMBL document CHEMBL1150459, “The -iodoethoxyl group: a stable unit for radioiodination” (Bioorg Med Chem Lett, 1994)

Tests used:
[1] = system: Mus musculus; test: Biodistribution of [123I]- labeled compound in mice heart was determined after 30 sec of administration; expressed in percent of injected dose per gram of organ; type: ADME, organism-based; conditions: in vivo, 0.5 min
[2] = system: Mus musculus; test: Biodistribution of [123I]- labeled compound in mice heart was determined after 5 min of administration; expressed in percent of injected dose per gram of organ; type: ADME, organism-based; conditions: in vivo
[3] = system: Mus musculus; test: Biodistribution of [123I]- labeled compound in mice kidneys was determined after 1 min of administration; expressed in percent of injected dose per gram of organ; type: ADME, organism-based, Kidney; conditions: in vivo
[4] = system: Mus musculus; test: Biodistribution of [123I]- labeled compound in mice kidneys was determined after 10 min of administration; expressed in percent of injected dose per gram of organ; type: ADME, organism-based, Kidney; conditions: in vivo
[5] = system: Mus musculus; test: Biodistribution of [123I]- labeled compound in mice lungs was determined after 15 sec of administration; expressed in percent of injected dose per gram of organ; type: ADME, organism-based, Lung; conditions: in vivo, 15 s
[6] = system: Mus musculus; test: Biodistribution of [123I]- labeled compound in mice lungs was determined after 2 min of administration; expressed in percent of injected dose per gram of organ; type: ADME, organism-based, Lung; conditions: in vivo
[7] = system: Mus musculus; test: Biodistribution of [123I]- labeled compound in mice lungs was determined after 30 sec of administration; expressed in percent of injected dose per gram of organ; type: ADME, organism-based, Lung; conditions: in vivo, 0.5 min
[8] = system: Mus musculus; test: Biodistribution of [123I]- labeled compound in mice lungs was determined after 5 min of administration; expressed in percent of injected dose per gram of organ; type: ADME, organism-based, Lung; conditions: in vivo
[9] = system: Mus musculus; test: Biodistribution of [123I]- labeled compound in mice kidneys was determined after 15 sec of administration; expressed in percent of injected dose per gram of organ; type: ADME, organism-based, Kidney; conditions: in vivo, 15 s
[10] = system: Mus musculus; test: Biodistribution of [123I]- labeled compound in mice kidneys was determined after 2 min of administration; expressed in percent of injected dose per gram of organ; type: ADME, organism-based, Kidney; conditions: in vivo
[11] = system: Mus musculus; test: Biodistribution of [123I]- labeled compound in mice kidneys was determined after 30 sec of administration; expressed in percent of injected dose per gram of organ; type: ADME, organism-based, Kidney; conditions: in vivo, 0.5 min
[12] = system: Mus musculus; test: Biodistribution of [123I]- labeled compound in mice kidneys was determined after 5 min of administration; expressed in percent of injected dose per gram of organ; type: ADME, organism-based, Kidney; conditions: in vivo
[13] = system: Mus musculus; test: Biodistribution of [123I]- labeled compound in mice liver was determined after 1 min of administration; expressed in percent of injected dose per gram of organ; type: ADME, organism-based; conditions: in vivo
[14] = system: Mus musculus; test: Biodistribution of [123I]- labeled compound in mice liver was determined after 10 min of administration; expressed in percent of injected dose per gram of organ; type: ADME, organism-based; conditions: in vivo
[15] = system: Mus musculus; test: Biodistribution of [123I]- labeled compound in mice liver was determined after 15 sec of administration; expressed in percent of injected dose per gram of organ; type: ADME, organism-based; conditions: in vivo, 15 s
[16] = system: Mus musculus; test: Biodistribution of [123I]- labeled compound in mice liver was determined after 2 min of administration; expressed in percent of injected dose per gram of organ; type: ADME, organism-based; conditions: in vivo
[17] = system: Mus musculus; test: Biodistribution of [123I]- labeled compound in mice liver was determined after 30 sec of administration; expressed in percent of injected dose per gram of organ; type: ADME, organism-based; conditions: in vivo, 0.5 min
[18] = system: Mus musculus; test: Biodistribution of [123I]- labeled compound in mice lungs was determined after 1 min of administration; expressed in percent of injected dose per gram of organ; type: ADME, organism-based, Lung; conditions: in vivo
[19] = system: Mus musculus; test: Biodistribution of [123I]- labeled compound in mice lungs was determined after 10 min of administration; expressed in percent of injected dose per gram of organ; type: ADME, organism-based, Lung; conditions: in vivo
[20] = system: Mus musculus; test: Biodistribution of [123I]- labeled compound in mice brain was determined after 1 min of administration; expressed in percent of injected dose per gram of organ; type: ADME, organism-based; conditions: in vivo
[21] = system: Mus musculus; test: Biodistribution of [123I]- labeled compound in mice brain was determined after 10 min of administration; expressed in percent of injected dose per gram of organ; type: ADME, organism-based; conditions: in vivo
[22] = system: Mus musculus; test: Biodistribution of [123I]- labeled compound in mice brain was determined after 2 min of administration; expressed in percent of injected dose per gram of organ; type: ADME, organism-based; conditions: in vivo
[23] = system: Mus musculus; test: Biodistribution of [123I]- labeled compound in mice brain was determined after 30 sec of administration; expressed in percent of injected dose per gram of organ; type: ADME, organism-based; conditions: in vivo, 0.5 min
[24] = system: Mus musculus; test: Biodistribution of [123I]- labeled compound in mice brain was determined after 5 min of administration; expressed in percent of injected dose per gram of organ; type: ADME, organism-based; conditions: in vivo
[25] = system: Mus musculus; test: Biodistribution of [123I]- labeled compound in mice heart was determined after 10 min of administration; expressed in percent of injected dose per gram of organ; type: ADME, organism-based; conditions: in vivo
[26] = system: Mus musculus; test: Biodistribution of [123I]- labeled compound in mice heart was determined after 15 sec of administration; expressed in percent of injected dose per gram of organ; type: ADME, organism-based; conditions: in vivo, 15 s
[27] = system: Mus musculus; test: Biodistribution of [123I]- labeled compound in mice heart was determined after 1 min of administration; expressed in percent of injected dose per gram of organ; type: ADME, organism-based; conditions: in vivo
[28] = system: Mus musculus; test: Biodistribution of [123I]- labeled compound in mice heart was determined after 2 min of administration; expressed in percent of injected dose per gram of organ; type: ADME, organism-based; conditions: in vivo
[29] = system: Mus musculus; test: Biodistribution of [123I]- labeled compound in mice liver was determined after 5 min of administration; expressed in percent of injected dose per gram of organ; type: ADME, organism-based; conditions: in vivo
[30] = system: Mus musculus; test: Biodistribution of [123I]- labeled compound in mice brain was determined after 15 sec of administration; expressed in percent of injected dose per gram of organ; type: ADME, organism-based; conditions: in vivo, 15 s

- Biodistribution [1]: 7.9%
- Biodistribution [2]: 4.2%
- Biodistribution [3]: 9%
- Biodistribution [4]: 12.7%
- Biodistribution [5]: 18.4%
- Biodistribution [6]: 10.9%
- Biodistribution [7]: 12.6%
- Biodistribution [8]: 8.8%
- Biodistribution [9]: 8.6%
- Biodistribution [10]: 11.3%
- Biodistribution [11]: 8.8%
- Biodistribution [12]: 13.2%
- Biodistribution [13]: 7.8%
- Biodistribution [14]: 7.1%
- Biodistribution [15]: 2.3%
- Biodistribution [16]: 8.5%
- Biodistribution [17]: 5.5%
- Biodistribution [18]: 12%
- Biodistribution [19]: 6.5%
- Biodistribution [20]: 4.7%
- Biodistribution [21]: 1.6%
- Biodistribution [22]: 4.1%
- Biodistribution [23]: 5.1%
- Biodistribution [24]: 2.4%
- Biodistribution [25]: 3.2%
- Biodistribution [26]: 17.8%
- Biodistribution [27]: 6.2%
- Biodistribution [28]: 5.3%
- Biodistribution [29]: 9.9%
- Biodistribution [30]: 5.5%
SMILES: O=C(O)CCOCCI
